# Data published in patent publication US20170137481A1, “Use of Cell-Permeable Peptide Inhibitors of the JNK Signal Transduction Pathway for the Treatment of Various Diseases” (Xigen Inflammation Ltd., priority 2014, published 2017).
# Experiments:
# [1] = system: rat model of diabetic nephropathy; assay: STZ rat model of diabetic nephropathy, chronic administration; type: in vivo; settings: XG-102 1, 2, 4 mg/kg iv weekly; Losartan 25 mg/kg po daily
# Excerpt: Losartan has been used as a positive control. Seventy-four male Sprague-Dawley rats (200-250 g; including 4 spare animals) from Charles River (Margate, Kent) were used. […] The diet has been purchased from Research Diets, New Jersey, USA. […] Animals have been housed in pairs throughout the study. […] During the third week of habituation, a blood sample has been taken from the lateral tail vein in the freely fed state using a hand-held glucose meter (One Touch Ultra 2). Blood sampling began at approximately 09:00. […] About 40 animals have been assigned to Cohort A and the remaining 30 to Cohort B, balanced as far as possible for body weight, plasma glucose and food and water intake. […] In all groups, food and water intake have been determined twice weekly (on the day of iv dosing and on water refill days. Blood glucose has been determined monthly. Samples were collected as detailed previously by glucometer (One Touch Ultra2). Blood samples have been taken in the freely fed state (beginning at approx. 09:00). Animals have been dosed immediately afterwards by the respective route to a timed schedule. Subsequent to dosing, each animal has been placed in a metabolism cage with free access to food and water for a 24 h period. To reduce evaporation, the glass urine collectors have been placed in a polystyrene container (Sca-online, UK) which was filled with ice. […]
# [2] = system: gerbil model of transient global ischemia; settings: cited from earlier work
# [3] = system: primary embryonic cultures and differentiated PC12 cells; settings: after trophic withdrawal; cited from earlier work
# TC-3 cell cultures = assay: Cellular import of fluorescein labeled TAT and TAT-IB1(s) peptides; type: cell-based; settings: 1 μM
# Method: The ability of the L- and D-enantiomeric forms of TAT and TAT-IB1(s) peptides (“TAT-IB peptides”) to enter cells was evaluated. L-TAT, D-TAT, L-TAT-IB1(s), and D-TAT-IB1(s) peptides [SEQ ID NOs: 5, 6, 9 and 12, respectively] were labeled by N-terminal addition of a glycine residue conjugated to fluorescein. Labeled peptides (1 μM) were added to TC-3 cell cultures, which were maintained as described in Example 3. At predetermined times cells were washed with PBS and fixed for five minutes in ice-cold methanol-acetone (1:1) before being examined under a fluorescence microscope. Fluorescein-labeled BSA (1 μM, 12 moles/mole BSA) was used as a control.
# TC-3 cells = assay: IL-1 induced pancreatic beta-cell death with peptides; type: cell-based; settings: 1 μM single addition, 15 days IL-1
# Method: Inhibition of IL-1 induced pancreatic beta-cell death by the D-TAT-IB1(s) peptide was analyzed. TC-3 cells were incubated as described above for 30 minutes with one single addition of the indicated peptides (1 μM), then IL-1 (10 ng/ml) was added.
# Apoptotic cells were then counted after two days of incubation with IL-1 by use of Propidium Iodide and Hoechst 33342 nuclear staining. A minimum of 1,000 cells were counted for each experiment. Standard Error of the Means (SEM) are indicated, n=5.
# Long term inhibition of IL-1 P induced cell-death by the D-TAT-IB1 peptide was also analyzed. TC-3 cells were incubated as above for 30 minutes with one single addition of the indicated peptides (1 μM), then IL-1 (10 ng/ml) was added, followed by addition of the cytokine every two days. Apoptotic cells were then counted after 15 days of incubation with IL-1 by use of propidium iodide and Hoechst 33342 nuclear staining. […] A minimum of 1.000 cells were counted for each experiment.
# [4] = system: AP-1 DNA binding complex in HeLa cell nuclear extracts; assay: AP-1 gel retardation assay; type: cell-based; settings: TNF-alpha 5 ng/ml
# [5] = system: recombinant JNK1, JNK2 and JNK3; assay: Solid phase kinase assay, phosphorylation of c-Jun, ATF2 and Elk1; type: biochemical; settings: dose response 0-25 μM
# Method: (§1) The effects of the peptides on JNKs-mediated phosphorylation of their target transcription factors were investigated in vitro. Recombinant and non activated JNK1, JNK2 and JNK3 were produced using a TRANSCRIPTION AND TRANSLATION rabbit reticulocyte lysate kit (Promega) and used in solid phase kinase assays with c-jun, ATF2 and Elk1, either alone or fused to glutathione-S-transferase (GST), as substrates. Dose response studies were performed wherein L-TAT or L-TAT-IB1 (s) peptides (0-25 μM) were mixed with the recombinant JNK1, JNK2, or JNK3 kinases in reaction buffer (20 mM Tris-acetate, 1 mM EGTA, 10 mM p-nitrophenyl-phosphate (pNPP), 5 mM sodium pyrophosphate, 10 mM p-glycerophosphate, 1 mM dithiothreitol) for 20 minutes. The kinase reactions were then initiated by the addition of 10 mM MgCl2 and […] ^33P-gamma-dATP and 1 μg of either GST-Jun (aa 1-89), GST-AFT2 (aa 1-96) or GST-ELK1 (aa 307-428). GST-fusion proteins were purchased from Stratagene (La Jolla, Calif.).
# (§2) Ten μL of glutathione-agarose beads were also added to the mixture. Reaction products were then separated by SDS-PAGE on a denaturing 10% polyacrylamide gel. […] The ability of D-TAT, D-TAT-IB1(s) and L-TAT-IB1(s) peptides (0-250 μM dosage study) to inhibit GST-Jun (aa 1-73) phosphorylation by recombinant JNK1, JNK2, and JNK3 by were analyzed as described above. […]
# JNK3 = molecular target: T1, JNK3 (Homo sapiens, UniProt P53779); assay: Solid phase kinase assay, JNK3 phosphorylation of Elk1; type: biochemical; settings: 0-25 μM
# T1 construct: host or cells: cell-free: rabbit reticulocyte lysate transcription/translation
# T1 sequence (P53779 whole entry, species assumed): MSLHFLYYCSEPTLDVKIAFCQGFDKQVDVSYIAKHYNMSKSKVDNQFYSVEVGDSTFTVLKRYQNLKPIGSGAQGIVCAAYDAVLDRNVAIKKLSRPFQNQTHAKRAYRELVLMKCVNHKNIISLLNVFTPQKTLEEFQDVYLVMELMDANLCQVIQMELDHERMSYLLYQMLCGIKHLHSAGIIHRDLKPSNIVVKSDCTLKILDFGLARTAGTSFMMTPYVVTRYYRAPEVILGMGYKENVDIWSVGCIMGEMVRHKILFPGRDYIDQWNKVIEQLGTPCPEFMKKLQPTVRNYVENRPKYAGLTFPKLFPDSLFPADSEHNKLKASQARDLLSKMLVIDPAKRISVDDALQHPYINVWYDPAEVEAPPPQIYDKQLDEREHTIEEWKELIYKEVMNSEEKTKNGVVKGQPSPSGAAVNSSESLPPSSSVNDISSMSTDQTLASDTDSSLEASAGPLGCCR
# Method: as §1, §2
# [6] = system: JNKs from UV-light irradiated HeLa cells or IL-1 treated TC-3 cells; assay: c-Jun phosphorylation by activated JNKs pulled down with GST-Jun; type: biochemical; settings: 25 μM
# Method: The effects of the L-TAT or L-TAT-IB1(s) peptides as defined herein on JNKs activated by stressful stimuli were evaluated using GST-Jun to pull down JNKs from UV-light irradiated HeLa cells or IL-1 treated PTC cells. PTC cells were cultured as described above. HeLa cells were cultured in DMEM medium supplemented with 10% Fetal Calf Serum, 100 μg/mL Streptomycin, 100 units/ml Penicillin and 2 mM Glutamine. One hour prior to being used for cell extract preparation, PTC cells were activated with IL-1 as described above, whereas HeLa cells were activated by UV-light (20 J/m^2). Cell extracts were prepared from control, UV-light irradiated HeLa cells and IL-1 treated TC-3 cells by scraping the cell cultures in lysis buffer (20 mM Tris-acetate, 1 mM EGTA, 1% Triton X-100, 10 mM p-nitrophenyl-phosphate, 5 mM sodium pyrophosphate, 10 mMP-glycerophosphate, 1 mM dithiothreitol). Debris was removed by centrifugation for five minutes at 15,000 rpm in an SS-34 Beckman rotor. One-hundred μg extracts were incubated for one hour at room temperature with one μg GST-jun (amino acids 1-89) and 10 μL of glutathione-agarose beads (Sigma). Following four washes with the scraping buffer, the beads were resuspended in the same buffer supplemented with L-TAT or L-TAT-IB1(s) peptides (25 μM) for 20 minutes. […]
# [7] = system: JNK mediated activation of c-Jun in HeLa cells; assay: GAL4-Jun luciferase reporter after MKK4/MKK7 co-transfection; type: cell-based; settings: 1 μM
# Excerpt: To determine whether the cell-permeable peptides as defined herein could block JNK signaling in vivo, we used a heterologous GAL4 system. HeLa cells, cultured as described above, were co-transfected with the 5×GAL-LUC reporter vector together with the GAL-Jun expression construct (Stratagene) comprising the activation domain of c-Jun (amino acids 1-89) linked to the GAL4 DNA-binding domain. Activation of JNK was achieved by the co-transfection of vectors expressing the directly upstream kinases MKK4 and MKK7 (see Whitmarsh et al., Science 285: 1573 (1999)). Briefly, 3×10^5 cells were transfected with the plasmids in 3.5-cm dishes using DOTAP (Boehringer Mannheim) following instructions from the manufacturer. For experiments involving GAL-Jun, 20 ng of the plasmid was transfected with 1 μg of the reporter plasmid pFR-Luc (Stratagene) and 0.5 μg of either MKK4 or MKK7 expressing plasmids. Three hours following transfection, cell media were changed and TAT and TAT-IB1(s) peptides (1 μM) were added. The luciferase activities were measured 16 hours later using the “Dual Reporter System” from Promega after normalization to protein content. […] Because HeLa cells express JNK1 and JNK2 isoforms but not JNK3, we transfected cells with JNK3.
compound,measurement,setting,value
CCCCc1nc(Cl)c(CO)n1Cc1ccc(-c2ccccc2-c2nn[nH]n2)cc1 [Losartan],body weight versus vehicle-treated STZ rats,[1],significantly lower
N#CC(c1ccnc(NCCc2cccnc2)n1)c1nc2ccccc2s1 (centres unmarked) [AS601245],delayed loss of hippocampal CA1 neurons,[2],significant protection against the delayed loss of hippocampal CA1 neurons
CCSCc1ccc2c(c1)c1c3c(c4c5cc(CSCC)ccc5n5c4c1n2[C@H]1C[C@](O)(C(=O)OC)[C@]5(C)O1)CNC3=O [CEP-1347],neuronal survival,[3],promotes neuronal survival
GRKKRRQRRRPPRPKRPTTLNLFPQVPRSQD (Description of sequence L-TAT-IB1 (s) (see Table 1)) [L-TAT-IB1(s)],entry into cells,TC-3 cell cultures,efficiently and rapidly (less than five minutes) entered cells
same,long term protection from IL-1 induced cell death,TC-3 cells,not
same,formation of the AP-1 DNA binding complex,[4],decrease the formation of the AP-1 DNA binding complex in the presence of TNF-alpha
"TAT-IB(s): TAT-IB1(s) peptide of Examples 5 to 7, there the L-TAT-IB1(s) peptide (GRKKRRQRRRPPRPKRPTTLNLFPQVPRSQD)","peptide dose with nearly complete inhibition of c-Jun, ATF2 and Elk1 phosphorylation by JNKs",[5],2.5 µM
same,inhibition of JNK3 phosphorylation of Elk1,JNK3,absence of TAT-IB(s) inhibition of JNK3 phosphorylation of Elk1
same,phosphorylation of c-Jun by activated JNKs,[6],efficiently prevented phosphorylation of c-Jun by activated JNKs
same,activation of c-Jun in cells transfected with JNK3,[7],inhibited JNK2 mediated activation of c-Jun
same,activation of c-Jun following MKK4 and MKK7 mediated activation of JNK,[7]; luciferase 16 hours later,blocked activation of c-Jun following MKK4 and MKK7 mediated activation of JNK
